Assay results published in patent US11147782B1, “GHB formulation and method for its manufacture” (JAZZ PHARMACEUTICALS IRELAND LIMITED, priority 2015, dated 2021).

What was measured:
[1] = Affinity for the exchange site of the anion exchange resin, estimated from pKa; type: physicochemical; details: estimated from pKa relative to other short-chain fatty acids
From the text: The affinity can be estimated based on the pKa of GHB (4.44) relative to other short-chain fatty acids for which affinities are known.

[2] = Xyrem solution is 500 mg/mL (42 wt %); solubility limit considerably higher; cited from earlier work

Structure (SMILES)	affinity relative to chloride on the anion exchange resin [1]	solubility limit in water [2]
O=C(O)O [Bicarbonate]	about 27%	–
O=C(O)CCCO [sodium oxybate, Sodium oxybate]	–	> 500 mg/mL
